Compound | melting point
CCSc1cc(C)nc(SCC)c1NC(=O)CCCCCCCCSc1nc2cccc(C(F)(F)F)c2o1 | 115 to 116 °C
Cc1ncc2c(n1)N(CC(O)CO)C(=O)CO2 (configuration not stated) | 70 to 72 °C
NS(=O)(=O)c1ccc(-c2cnn(-c3ccc(F)c(F)c3)c(=O)c2-c2ccc(F)cc2)cc1 | 177 to 181 °C
Cc1c(-c2ccc(F)cc2)c(-c2ccc(S(C)(=O)=O)cc2)c2n1CCC2 | 191 °C
CC1(c2ccc(C3(O)CCCCCC3)cc2)OCCO1 | 77 to 79 °C
CC(OC(=O)Nc1ccc(-c2ncn(-c3ccc(OC(F)(F)F)cc3)n2)cc1)C1CC1 (configuration not stated) | 123 to 124 °C
CN(C)C(=O)C(=O)N1CN(C(=O)c2c(F)cccc2F)C(=O)N(c2ccc(Oc3ccc(C(F)(F)F)cc3Cl)cc2F)C1 | 98 to 100 °C
O=C(CCCC(=O)N1CCC(c2ccc(Cl)cc2)CC1)c1ccc2c(c1)CCNCC2 | 112 to 113 °C
O=C(NCCCC(F)(F)F)c1nc(-c2ccc(Cl)cc2Cl)c(-c2ccc(Cl)cc2)s1 | 99 to 101 °C
O=C(Oc1ccccc1)N1CCN(c2nn(S(=O)(=O)c3ccccc3)c3ccccc23)CC1 | 112 to 114 °C
CS(=O)(=O)N[C@@H]1CN2C(=O)N(c3cc(Cl)nc(Cl)c3)C(=O)[C@@]2(Cc2ccc(OC(F)(F)F)cc2)C1 | 207 °C
Cc1ccc2c(c1)CCC2=NNC(=N)N | > 275 °C
Cc1cccc2c(=O)[nH]c(CCN3CCCC(O)C3)cc12 (configuration not stated) | 180 to 181 °C
CCCCOCCOc1ccc(-c2ccc3c(c2)C=C(C(=O)Nc2ccc4c(c2)nc(S(=O)Cc2cncn2CCC)n4C)CCN3CC(C)C)cc1 (configuration not stated) | 150 to 151 °C
O=[N+]([O-])c1ccc2nc(-c3ccc4c(c3)OCO4)ncc2c1 | 220 to 222 °C
O=C(NNS(=O)(=O)c1ccccc1)c1ccc2c(c1)OCO2 | 156 to 158 °C
COc1ccc(NC(=O)/C=C/c2c(OC)cc(OC)cc2OC)cc1 | 198 to 200 °C
CC(=O)OC1CC2=CC(=NO)C3C4CCCC4(C)CCC3C2(C)C(OC(C)=O)C1 (configuration not stated) | 236 to 238 °C
O=c1[nH]c2sccc2c(=O)n1CCN1CCN(c2ccccc2Cl)CC1 | 216 to 217 °C
CC(=O)N1C(=O)C(C(=O)Cc2ccccc2)c2ccccc21 (configuration not stated) | 149 to 151 °C
N#CC1c2ccccc2CSc2ccccc21 (configuration not stated) | 128 to 130 °C
COc1c(C)cc(-c2[nH]c3ccccc3c2C)cc1C | 108 to 110 °C
CC(=O)CC(=O)NCCNC(=O)OCc1ccccc1 | 116 to 118 °C
COc1cc(OC)c(-c2ccc(C)s2)cc1C=CC(=O)c1ccc(C(=O)O)cc1 | 213 to 215 °C

Compound | melting point
O=Cc1cccc2ncc(-c3ccccc3)nc12 | 149 °C
CCOC(=O)Cc1ccc(NC(=O)C(COc2ccc(Cl)cc2)NS(=O)(=O)c2ccc(Cl)cc2)cc1 (racemic) | 136 to 138 °C
CC(=NO)c1ccnc(C)c1 | 151 to 152 °C
CC(C)N(C)C(=O)NS(=O)(=O)c1cc(-n2c(=O)cc(C(F)(F)F)n(C)c2=O)c(F)cc1Cl | 145 °C
Cc1ccccc1CCOCC(=O)O | 47 to 48 °C
CCOP(=O)(OCC)C(Nc1ccccn1)P(=O)(OCC)OCC | 63 to 66 °C
CC1(C)CC(NCC(O)COc2ccc(C(=O)c3ccccc3)c(O)c2)CC(C)(C)N1OC1CCCCC1 (configuration not stated) | 118 to 121 °C
COc1ccc(-n2nc(Sc3ccc(F)cc3)c(C)c(C#N)c2=O)cc1 | 150 to 152 °C
CC(C)(C)[Si](C)(C)Oc1ccc(NC(=O)CN2CCC(O)(Cc3ccccc3)CC2)cc1 | 105 to 108 °C
COc1ccc(-n2nc(Sc3ccc(OC(F)(F)F)cc3)c(C)c(C#N)c2=O)cc1 | 165 to 167 °C
CCN(CC)C(=O)c1ccc(C(=C2CC3CCC(C2)N3C)c2ccccc2)cc1 | 145 to 147 °C
CCOC(=O)c1coc(-c2ccc(CCl)cc2)n1 | 115 to 117 °C
O=C(Nc1c[nH]nc1C(=O)NCc1ccc(-c2ccccc2)cc1)c1ccccn1 | 227 to 228 °C
Cc1ccc2[nH]c(-c3ccccc3)c(CCN3CCCCC3)c2c1 | 163 to 164 °C
N#CC[C@@H]1CC[C@@H]2CN(c3noc4ccccc34)CCN2C1 (relative stereo) | 184 to 186 °C
O=C(CCCCCS(=O)(=O)Nc1ccccc1)NO | 97 to 98 °C
Cc1oc(-c2ccc(-c3ccccc3)cc2)nc1CCOc1ccc(OC(C)(C)C(=O)O)cc1 | 123 to 124 °C
CCCCCCCCCCCC(=O)OC1C(C)C(c2ccccc2)N(O)C(c2ccccc2)C1C (configuration not stated) | 108 to 112 °C
O=C(Nc1ccc(CCCCC2(C(=O)NCC(F)(F)F)c3ccccc3-c3ccccc32)nc1)c1ccccc1 | 109 to 113 °C
CC(=O)c1cn(Cc2ccc(F)cc2)c(=O)n(Cc2ccc(F)cc2)c1=O | 134 to 135 °C
CC(O)c1c(-c2ccc(O)cc2)oc2ccc(O)cc12 (configuration not stated) | 177 to 182 °C
Cn1cc(C=O)c2c3sc4ccccc4c3ccc21 | 224 °C
Cc1ccc(-c2ccc3c(c2)C=C(C(=O)Nc2ccc(CS(=O)c4ccccc4)cc2)CCO3)cc1 (configuration not stated) | 127 to 128 °C

Other lines, results leading:

melting point | Compound
84.5 to 85.5 °C | COc1c(C2=NC(C)(C)CO2)ccc(C2=NC(C)(C)CO2)c1OC
145 to 148 °C | Fc1ccc(-c2onc3c(CBr)cccc23)cc1
88 to 89 °C | CCCOc1ccc(S(=O)(=O)N2CCN(CCO)CC2)cc1C(=O)OC
43 to 44 °C | CCc1cc(CC)n2nccc2n1
172 °C | CC(C)Nc1nc(N)c(C(=O)N=CNNS(=O)(=O)N(C)C)nc1Cl
204 to 208 °C | Clc1ccc(-c2cc(Cl)c3cc(Cl)ccc3n2)cc1
91 to 93 °C | CNc1c(OCCN(Cc2ccccc2)C(=O)OC(C)(C)C)cccc1[N+](=O)[O-]
125 to 127 °C | CCCCc1nc(C2CCCCC2)nn1Cc1ccc(-c2ccccc2-c2nnn[nH]2)cc1
173 to 175 °C | Cc1ccc(NC(=O)Nc2cccc(Oc3ccc4nc(COc5ccc(CC6SC(=O)NC6=O)cc5)n(C)c4c3)c2)cc1 (configuration not stated)
180 to 181 °C | CC(=O)NC1Cc2cccc3cccc(c23)C1
193 to 195 °C | COc1cc(OC)c2c(=O)[nH]c(-c3cc(C)c(OCCO)c(C)c3)cc2c1
94 to 98 °C | CC(=O)Oc1cc(C(C)C)ccc1C1(OC(C)=O)C(=O)c2cccc([N+](=O)[O-])c2C1=O (configuration not stated)
244 to 245 °C | COC(=O)c1cc(=O)c2oc3ccccc3c(=O)c2[nH]1
166 to 167 °C | C=CCOc1cccc(C(=O)O)c1C(=O)O
65 to 85 °C | CC(C)(C)c1ccc(O)c(CO)c1
183 °C | Cc1ccc(N2C(=O)C3=C(SCCO3)C2OC(=O)N2CCN(C)CC2)nc1 (configuration not stated)
258 °C | O=C(Nc1cccc(S(=O)(=O)Nc2ccccc2)c1)c1cnn2c(C(F)(F)F)cc(-c3ccc(C(F)(F)F)cc3)nc12
60 °C | CCOC(=O)NC(=O)n1c(-c2cc(OC)c(O)c(OC)c2)nc(-c2ccc(N(CC)CC)cc2)c1-c1ccc(N(CC)CC)cc1
133 to 134 °C | COC(=O)[C@@](C#N)(COCc1ccccc1)[C@H](c1ccccc1OC)c1cccc2ccccc12 (relative stereo)
210 °C | O=C(NCCN1CCOCC1)Nc1nc2ccc(OCc3c(F)cccc3Cl)cc2s1

Reference: a melting point compilation (Tetko et al.; mined from patent text by program, amines drawn as free bases though some values may be those of a salt)
